{"source": "paper PMC314469", "about": "“Protein Interaction Networks by Proteome Peptide Scanning” (PLoS Biology, 2004)", "system": "Myo5 SH3 domain", "assay": "SPOT analysis of cellulose-bound peptides (WISE), Myo5 SH3 domain (Dataset S4)", "assay_type": "binding, Saccharomyces cerevisiae", "details": "for The normalized value in BLU units: Myo5 SH3 domain", "key": {"[1]": {"details": "SPOT analysis of cellulose-bound peptides probed with Myo5 SH3 domain, normalized value"}, "[2]": {"details": "SPOT analysis of cellulose-bound 14-mer yeast proteome peptides, normalized value, mean where the peptide was synthesized more than once"}, "[3]": {"details": "SPOT analysis of membrane-bound peptides, normalized value (see methods)"}, "[4]": {"details": "SPOT analysis of membrane-synthesized peptides probed with Myo5 SH3 domain, normalized value"}}}
{"sequence": "PEDFLPPPPKPHFA", "values": [{"measurement": "The normalized value in BLU units (SPOT analysis, Myo5 SH3)", "setting": "[1]", "value": 125.8, "unit": "BLU"}]}
{"sequence": "PEGVFCIPAPPPNV", "values": [{"measurement": "The normalized value in BLU units", "setting": "[2]", "value": 82.5, "unit": "BLU"}]}
{"sequence": "PEHLFNNPQNPMDF", "values": [{"measurement": "The normalized value in BLU units", "setting": "[2]", "value": 157.1, "unit": "BLU"}]}
{"sequence": "PELAKNSPLAPIKK", "values": [{"measurement": "The normalized value in BLU units", "setting": "[3]", "value": 125.2, "unit": "BLU"}]}
{"sequence": "PEPTMGSPDAPPLV", "values": [{"measurement": "The normalized value in BLU units", "setting": "[2]", "value": 106.8, "unit": "BLU"}]}
{"sequence": "PESAKCNPNSPRLK", "values": [{"measurement": "The normalized value in BLU units", "setting": "[3]", "value": 253.0, "unit": "BLU"}]}
{"sequence": "PETRMDLPFSPEVN", "values": [{"measurement": "The normalized value in BLU units (SPOT analysis, Myo5 SH3)", "setting": "[1]", "value": 130.3, "unit": "BLU"}]}
{"sequence": "PEVHHHCPGVPCLV", "values": [{"measurement": "The normalized value in BLU units (SPOT analysis, Myo5 SH3)", "setting": "[1]", "value": 331.3, "unit": "BLU"}]}
{"sequence": "PEVKHFCPSTPIML", "values": [{"measurement": "The normalized value in BLU units (SPOT analysis, Myo5 SH3)", "setting": "[1]", "value": 93.7, "unit": "BLU"}]}
{"sequence": "PEVLMDQPYSPLSD", "values": [{"measurement": "The normalized value in BLU units (SPOT analysis, Myo5 SH3)", "setting": "[1]", "value": 78.7, "unit": "BLU"}]}
{"sequence": "PEWRRPHPNIPDAK", "values": [{"measurement": "The normalized value in BLU units", "setting": "[3]", "value": 182.7, "unit": "BLU"}]}
{"sequence": "PFGTFTLPADPEYK", "values": [{"measurement": "The normalized value in BLU units", "setting": "[2]", "value": 171.6, "unit": "BLU"}]}
{"sequence": "PFIDYEFPHLPNEL", "values": [{"measurement": "The normalized value in BLU units", "setting": "[2]", "value": 98.9, "unit": "BLU"}]}
{"sequence": "PFIRRYTPLKPITK", "values": [{"measurement": "The normalized value in BLU units (SPOT analysis, Myo5 SH3)", "setting": "[4]", "value": 649.2, "unit": "BLU"}]}
{"sequence": "PFLIKFTPKFPQSI", "values": [{"measurement": "The normalized value in BLU units (SPOT analysis, Myo5 SH3)", "setting": "[4]", "value": 974.5, "unit": "BLU"}]}
{"sequence": "PFSSMKEPFIPQSS", "values": [{"measurement": "The normalized value in BLU units (SPOT analysis, Myo5 SH3)", "setting": "[1]", "value": 410.6, "unit": "BLU"}]}
{"sequence": "PFYTMPDPANPKYS", "values": [{"measurement": "The normalized value in BLU units (SPOT analysis, Myo5 SH3)", "setting": "[1]", "value": 145.1, "unit": "BLU"}]}
{"sequence": "PGGPKFEPLYPREE", "values": [{"measurement": "The normalized value in BLU units (SPOT analysis, Myo5 SH3)", "setting": "[4]", "value": 90.0, "unit": "BLU"}]}
{"sequence": "PHFAKHSPDSPRTS", "values": [{"measurement": "The normalized value in BLU units", "setting": "[3]", "value": 236.2, "unit": "BLU"}]}
{"sequence": "PIGSRYNPNLPVTE", "values": [{"measurement": "The normalized value in BLU units", "setting": "[3]", "value": 187.4, "unit": "BLU"}]}
{"sequence": "PIRLRKRPPPPPPV", "values": [{"measurement": "The normalized value in BLU units", "setting": "[3]", "value": 60274.0, "unit": "BLU"}]}
{"sequence": "PIVKKNVPKPPPLV", "values": [{"measurement": "The normalized value in BLU units (SPOT analysis, Myo5 SH3)", "setting": "[4]", "value": 153.6, "unit": "BLU"}]}
{"sequence": "PKCEKIEPLSPSFK", "values": [{"measurement": "The normalized value in BLU units (SPOT analysis, Myo5 SH3)", "setting": "[4]", "value": 116.4, "unit": "BLU"}]}
{"sequence": "PKHIRNEPVKPFRN", "values": [{"measurement": "The normalized value in BLU units (SPOT analysis, Myo5 SH3)", "setting": "[4]", "value": 360.9, "unit": "BLU"}]}
{"sequence": "PKKSRVLPPLPFPL", "values": [{"measurement": "The normalized value in BLU units", "setting": "[2]", "value": 3587.4, "unit": "BLU"}]}
{"sequence": "PKSPKAYPKLPDIQ", "values": [{"measurement": "The normalized value in BLU units (SPOT analysis, Myo5 SH3)", "setting": "[4]", "value": 357.2, "unit": "BLU"}]}
{"sequence": "PKTGKPLPTQPSSS", "values": [{"measurement": "The normalized value in BLU units (SPOT analysis, Myo5 SH3)", "setting": "[4]", "value": 193.3, "unit": "BLU"}]}
{"sequence": "PLAPLPPPPPPSVA", "values": [{"measurement": "The normalized value in BLU units (SPOT analysis, Myo5 SH3)", "setting": "[1]", "value": 4747.6, "unit": "BLU"}]}
{"sequence": "PLFGLSIPKTPTLK", "values": [{"measurement": "The normalized value in BLU units (SPOT analysis, Myo5 SH3)", "setting": "[1]", "value": 121.7, "unit": "BLU"}]}
{"sequence": "PLNQLPNPAMPLLH", "values": [{"measurement": "The normalized value in BLU units (SPOT analysis, Myo5 SH3)", "setting": "[1]", "value": 104.2, "unit": "BLU"}]}
{"sequence": "PLPTFSAPSLPQQS", "values": [{"measurement": "The normalized value in BLU units", "setting": "[2]", "value": 46960.5, "unit": "BLU"}]}
{"sequence": "PLRERIIPILPANS", "values": [{"measurement": "The normalized value in BLU units", "setting": "[2]", "value": 175.1, "unit": "BLU"}]}
{"sequence": "PLTTLPPPRLPSIQ", "values": [{"measurement": "The normalized value in BLU units", "setting": "[2]", "value": 2788.2, "unit": "BLU"}]}
{"sequence": "PNPLKKAPIPPLAY", "values": [{"measurement": "The normalized value in BLU units", "setting": "[3]", "value": 137.2, "unit": "BLU"}]}
{"sequence": "PPEGFPEPLNPTNF", "values": [{"measurement": "The normalized value in BLU units (SPOT analysis, Myo5 SH3)", "setting": "[1]", "value": 86.0, "unit": "BLU"}]}
{"sequence": "PPKLLVYPESPETN", "values": [{"measurement": "The normalized value in BLU units", "setting": "[2]", "value": 91.3, "unit": "BLU"}]}
{"sequence": "PPLDFEQPRLPSTA", "values": [{"measurement": "The normalized value in BLU units (SPOT analysis, Myo5 SH3)", "setting": "[1]", "value": 192.3, "unit": "BLU"}]}
{"sequence": "PPLPRAPPVPPATF", "values": [{"measurement": "The normalized value in BLU units (SPOT analysis, Myo5 SH3)", "setting": "[4]", "value": 35914.7, "unit": "BLU"}]}
{"sequence": "PPMAYNRPVYPPPQ", "values": [{"measurement": "The normalized value in BLU units", "setting": "[2]", "value": 6717.1, "unit": "BLU"}]}
{"sequence": "PPNYKQQPNCPSSN", "values": [{"measurement": "The normalized value in BLU units (SPOT analysis, Myo5 SH3)", "setting": "[4]", "value": 147.5, "unit": "BLU"}]}
{"sequence": "PPPDFNDPTAPLSS", "values": [{"measurement": "The normalized value in BLU units", "setting": "[2]", "value": 152.8, "unit": "BLU"}]}
{"sequence": "PPPPLPPPLFPSSS", "values": [{"measurement": "The normalized value in BLU units (SPOT analysis, Myo5 SH3)", "setting": "[1]", "value": 38483.6, "unit": "BLU"}]}
{"sequence": "PPPPMGQPKDPKFE", "values": [{"measurement": "The normalized value in BLU units (SPOT analysis, Myo5 SH3)", "setting": "[1]", "value": 248.1, "unit": "BLU"}]}
{"sequence": "PPPPPPPPPVPA", "values": [{"measurement": "The normalized value in BLU units (SPOT analysis, Myo5 SH3)", "setting": "[1]", "value": 95729, "unit": "BLU"}]}
{"sequence": "PPPPRRGPAPPPPP", "values": [{"measurement": "The normalized value in BLU units", "setting": "[3]", "value": 15026.4, "unit": "BLU"}]}
{"sequence": "PPQMRSNPQQPPQD", "values": [{"measurement": "The normalized value in BLU units (SPOT analysis, Myo5 SH3)", "setting": "[4]", "value": 268.2, "unit": "BLU"}]}
{"sequence": "PPQTHQSPPPPPQQ", "values": [{"measurement": "The normalized value in BLU units (SPOT analysis, Myo5 SH3)", "setting": "[1]", "value": 222.2, "unit": "BLU"}]}
{"sequence": "PPRFKNFPTLPSKI", "values": [{"measurement": "The normalized value in BLU units", "setting": "[3]", "value": 634.0, "unit": "BLU"}]}
{"sequence": "PPSIRKQPIAPDVL", "values": [{"measurement": "The normalized value in BLU units (SPOT analysis, Myo5 SH3)", "setting": "[4]", "value": 150.3, "unit": "BLU"}]}
{"sequence": "PQQNRPLPQLPNRN", "values": [{"measurement": "The normalized value in BLU units", "setting": "[3]", "value": 186.1, "unit": "BLU"}]}
{"sequence": "PQTMRQAPKRPDAD", "values": [{"measurement": "The normalized value in BLU units (SPOT analysis, Myo5 SH3)", "setting": "[4]", "value": 3257.1, "unit": "BLU"}]}
{"sequence": "PRSKKKKPAPPTLL", "values": [{"measurement": "The normalized value in BLU units", "setting": "[3]", "value": 412.9, "unit": "BLU"}]}
{"sequence": "PSAMKLVPSIPPAT", "values": [{"measurement": "The normalized value in BLU units (SPOT analysis, Myo5 SH3)", "setting": "[4]", "value": 561.3, "unit": "BLU"}]}
{"sequence": "PSHYRNIPYNPATF", "values": [{"measurement": "The normalized value in BLU units", "setting": "[3]", "value": 174.8, "unit": "BLU"}]}
{"sequence": "PSRSKSNPILPIMR", "values": [{"measurement": "The normalized value in BLU units", "setting": "[2]", "value": 522.7, "unit": "BLU"}]}
{"sequence": "PSSHKRKPVIPWDA", "values": [{"measurement": "The normalized value in BLU units", "setting": "[3]", "value": 289.2, "unit": "BLU"}]}
{"sequence": "PSSKKNKPNPPPGS", "values": [{"measurement": "The normalized value in BLU units (SPOT analysis, Myo5 SH3)", "setting": "[4]", "value": 106.9, "unit": "BLU"}]}
{"sequence": "PTANKYAPVSPTVQ", "values": [{"measurement": "The normalized value in BLU units", "setting": "[3]", "value": 191.4, "unit": "BLU"}]}
